Earlier results on one substance are cited in patent US20170121368A1, “NOVEL COMPOUNDS COMPRISING A BOMBESIN DERIVATIVE, A PROCESS FOR THE PREPARATION THEREOF AND A NUCLEAR MOLECULAR IMAGING AGENT COMPRISING THE SAME” (priority 2015, published 2017).

No end group written: not given here.

For this data set, the system named is human prostate cancer model. Particulars: 68Ga label, PET, human prostate cancer model in laboratory mice.

Consider “GRP: Gastrin-releasing peptide labeled with 68Ga, literature PET study (VPLPAGGGTVLTKMYPRGNHWAVGHLM-NH2; ends and bridges not checked; also: 68Ga radiolabel; UniProt P07492 24-50, looked up)”, for which the uptake rate is on record as 9.5 % ID/g.
